Structures can show the parent of a compound that is named as a salt. Residues, ends and D or L forms follow the SMILES beside them. *: point of attachment. Cbz = O=C(OCc1ccccc1)*
Assays:
CDK9 [1] = target: T1, CDK9 (Homo sapiens, UniProt P50750); assay: CDK9 degradation in MOLT4 cells; format: cell-based; conditions: for effect of pre-treatment on CDK9 degradation by 955: pre-treatment before 955
CDK10 [2] = target: T2, CDK10 (Homo sapiens, UniProt Q15131); assay: CDK10 degradation in MOLT4 cells; format: cell-based
T2 sequence (Q15131 whole entry): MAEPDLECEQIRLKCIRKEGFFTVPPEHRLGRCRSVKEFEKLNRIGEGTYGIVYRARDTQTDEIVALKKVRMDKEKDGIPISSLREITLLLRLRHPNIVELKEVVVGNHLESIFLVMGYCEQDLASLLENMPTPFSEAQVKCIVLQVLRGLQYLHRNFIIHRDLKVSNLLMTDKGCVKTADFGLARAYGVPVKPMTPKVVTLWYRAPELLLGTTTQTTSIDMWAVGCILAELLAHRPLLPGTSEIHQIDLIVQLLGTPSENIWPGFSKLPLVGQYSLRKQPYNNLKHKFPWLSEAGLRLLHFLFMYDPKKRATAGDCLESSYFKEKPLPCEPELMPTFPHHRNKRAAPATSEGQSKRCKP

EML4-ALK = EML4-ALK (Homo sapiens, UniProt Q9HC35+Q9UM73); assay: EML4-ALK degradation in NCI-H2228 cells; format: cell-based; conditions: for effect of pre-treatment on EML4-ALK degradation induced by 819: NCI-H2228 cells
CDK9 [3] = target: T1, CDK9; assay: TMT-based global proteomics in MOLT4 cells, CDK9; format: cell-based
c-Myc and MCL-1 [4] = assay: c-Myc and MCL-1 expression in LNCaP cells; format: cell-based, human
[5] = system: LNCaP prostate cancer cells; assay: Cell killing in KEAP1 siRNA- vs control siRNA-treated LNCaP cells; format: cell-based, human; conditions: 24 h treatment
CDK9 [6] = target: T1, CDK9; assay: CDK9 degradation in KEAP1 knockout / rescued H1299 cells; format: cell-based
V5-TurboID-CDK9 = V5-TurboID-CDK9 (Homo sapiens, UniProt P50750+Q14145); assay: TurboID-bait assay in 293T cells; format: cell-based
V5-TurboID-CDK9, sequence (P50750 whole entry): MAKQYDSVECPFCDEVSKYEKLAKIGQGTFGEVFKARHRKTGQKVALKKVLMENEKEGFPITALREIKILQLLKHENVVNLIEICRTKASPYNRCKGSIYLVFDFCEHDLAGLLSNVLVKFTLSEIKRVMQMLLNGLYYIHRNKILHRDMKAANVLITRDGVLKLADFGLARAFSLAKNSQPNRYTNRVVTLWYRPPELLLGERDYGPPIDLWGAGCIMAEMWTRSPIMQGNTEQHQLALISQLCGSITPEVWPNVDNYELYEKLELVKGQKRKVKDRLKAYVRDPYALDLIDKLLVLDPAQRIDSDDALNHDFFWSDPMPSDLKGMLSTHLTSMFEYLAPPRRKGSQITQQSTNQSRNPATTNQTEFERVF
V5-TurboID-CDK9, sequence (Q14145 whole entry): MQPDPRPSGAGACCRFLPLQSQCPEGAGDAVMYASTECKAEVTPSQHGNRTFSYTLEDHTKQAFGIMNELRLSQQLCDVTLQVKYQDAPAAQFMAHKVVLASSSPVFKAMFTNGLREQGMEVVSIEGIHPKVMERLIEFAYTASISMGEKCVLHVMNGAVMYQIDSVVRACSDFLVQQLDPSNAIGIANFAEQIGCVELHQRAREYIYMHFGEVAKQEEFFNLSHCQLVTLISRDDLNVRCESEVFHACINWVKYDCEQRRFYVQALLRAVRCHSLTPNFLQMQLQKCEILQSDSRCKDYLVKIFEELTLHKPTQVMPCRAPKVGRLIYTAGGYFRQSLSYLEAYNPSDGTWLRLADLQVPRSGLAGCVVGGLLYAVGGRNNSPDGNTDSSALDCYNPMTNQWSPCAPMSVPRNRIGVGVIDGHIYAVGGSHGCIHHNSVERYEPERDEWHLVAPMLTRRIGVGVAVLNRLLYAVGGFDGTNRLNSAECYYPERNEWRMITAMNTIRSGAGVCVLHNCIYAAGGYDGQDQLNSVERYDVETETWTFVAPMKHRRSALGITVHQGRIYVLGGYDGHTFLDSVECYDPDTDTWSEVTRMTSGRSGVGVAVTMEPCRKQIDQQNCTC
V5-TurboID-CDK9, sequence (O60563 whole entry partner): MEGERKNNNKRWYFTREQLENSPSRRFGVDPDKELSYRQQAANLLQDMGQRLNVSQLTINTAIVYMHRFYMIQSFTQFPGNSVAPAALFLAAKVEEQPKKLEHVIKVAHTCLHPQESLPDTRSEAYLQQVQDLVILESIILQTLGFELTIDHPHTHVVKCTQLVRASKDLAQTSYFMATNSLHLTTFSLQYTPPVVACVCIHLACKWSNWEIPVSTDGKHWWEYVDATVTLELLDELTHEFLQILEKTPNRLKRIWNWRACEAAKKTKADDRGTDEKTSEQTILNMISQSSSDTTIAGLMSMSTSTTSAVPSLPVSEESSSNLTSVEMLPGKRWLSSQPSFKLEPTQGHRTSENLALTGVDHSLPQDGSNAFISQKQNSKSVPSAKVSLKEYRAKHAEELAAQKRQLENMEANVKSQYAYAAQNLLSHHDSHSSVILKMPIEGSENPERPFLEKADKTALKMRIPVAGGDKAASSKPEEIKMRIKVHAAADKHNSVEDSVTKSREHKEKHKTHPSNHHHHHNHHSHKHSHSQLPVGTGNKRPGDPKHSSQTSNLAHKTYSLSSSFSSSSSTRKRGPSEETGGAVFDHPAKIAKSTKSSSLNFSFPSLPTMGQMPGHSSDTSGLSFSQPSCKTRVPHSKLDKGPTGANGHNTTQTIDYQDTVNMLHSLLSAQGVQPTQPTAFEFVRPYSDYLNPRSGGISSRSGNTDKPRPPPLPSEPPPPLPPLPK

[7] = target: CDK9:955:KEAP1 ternary complex (Homo sapiens, UniProt P50750+Q14145); assay: NanoBRET ternary complex formation assay in live 293T cells; format: cell-based; conditions: HiBit-CDK9 and Halo-KEAP1, 6 h
CDK9:955:KEAP1 ternary complex, sequence (P50750 whole entry): as the sequence (P50750 whole entry) above
CDK9:955:KEAP1 ternary complex, sequence (Q14145 whole entry): as the sequence (Q14145 whole entry) above
CDK9:955:KEAP1 ternary complex, sequence (O60563 whole entry partner): as the sequence (O60563 whole entry partner) above

purified KEAP1 protein = purified KEAP1 protein (Homo sapiens, UniProt Q14145); assay: Gel-based competitive ABPP assay with IA-alkyne; format: binding; conditions: serially diluted compound, purified His-KEAP1
purified KEAP1 protein, sequence (Q14145 whole entry): as the sequence (Q14145 whole entry) above

H1299 lung cancer cells = assay: Cell killing in KEAP1 siRNA- vs control siRNA-treated H1299 cells; format: cell-based, human; conditions: 24 h treatment
[8] = system: CDK9-dependent transcription; assay: RNA-seq in MOLT4 cells; format: cell-based, human; conditions: 6 h treatment, compared with SNS-032
MOLT4 cells = assay: PARP cleavage; format: cell-based, human; conditions: compared with SNS-032
CDK9 [9] = target: T1, CDK9; assay: CDK9 degradation in LNCaP cells; format: cell-based
c-Myc and MCL-1 [10] = assay: c-Myc and MCL-1 expression in MOLT4 cells; format: cell-based, human; conditions: mRNA and protein
CDK9 [11] = conditions: cited from earlier work
DU145 = assay: Viability; format: cell-based, human
PC3 = assay: Viability; format: cell-based, human
22RV1 = assay: Viability; format: cell-based, human
LNCaP = assay: Viability; format: cell-based, human
CDK9 [12] = conditions: read-out: IC50 CDK9; cited from earlier work
CDK10 [13] = target: T2, CDK10; conditions: MOLT4 lysates; cited from earlier work
[14] = 955 versus 336 with reduced Michael acceptors (Figure 2H)
[15] = PL or SNS-032 alone or their combination (Figure 1E)

T1 sequence (P50750 whole entry): as the sequence (P50750 whole entry) above

Compound: CC(C)C[C@H](NC(=O)[C@H](Cc1ccccc1)NC(=O)c1cnccn1)B(O)O [bortezomib]
- effect of pre-treatment on CDK9 degradation by 955 (CDK9 [1]): blocks

Compound: NS(=O)(=O)OC[C@@H]1C[C@@H](n2ccc3c(N[C@H]4CCc5ccccc54)ncnc32)C[C@@H]1O [MLN4924]
- effect of pre-treatment on CDK10 degradation induced by 955 (CDK10 [2]): blocks
- effect of pre-treatment on CDK9 degradation by 955 (CDK9 [1]): blocks
- effect of pre-treatment on EML4-ALK degradation induced by 819 (EML4-ALK): blocks

Compound: COC(=O)[C@]12CCC(C)(C)C[C@H]1[C@H]1C(=O)C=C3[C@@]4(C)C=C(C#N)C(=O)C(C)(C)[C@@H]4CC[C@@]3(C)[C@]1(C)CC2 [CDDO-ME]
- effect of pre-treatment on CDK9 degradation by 955 (CDK9 [1]): blocks

Compound: NS(=O)(=O)OC[C@H]1C[C@@H](Nc2ccnc3cc(-c4cccc(SC(F)(F)F)c4)nn23)[C@H](O)[C@@H]1O [TAK-243]
- effect of pre-treatment on CDK9 degradation by 955 (CDK9 [1]): blocks

Compound: COc1cc(/C=C/C(=O)N2CCC=CC2=O)cc(OC)c1OCCN1CCN(C(=O)CN2CCC(C(=O)Nc3ncc(SCc4ncc(C(C)(C)C)o4)s3)CC2)CC1 [compound 955, (E)-N-(5-(((5-(tert-butyl)oxazol-2-yl)methyl)thio)thiazol-2-yl)-1-(2-(4-(2-(2,6-dimethoxy-4-(3-oxo-3-(6-oxo-3,6-dihydropyridin-1(2H)-yl)prop-1-en-1-yl)phenoxy)ethyl)piperazin-1-yl)-2-oxoethyl)piperidine-4-carboxamide]
- CDK9 level (global proteome) (CDK9 [3]; 0.1 μM for 1 h and 6 h): significant reduction of CDK9
- c-Myc and MCL-1 expression (c-Myc and MCL-1 [4]): downregulated c-Myc and MCL-1
- effect of KEAP1 knockdown on cytotoxicity [5]: attenuated the cytotoxicity
- CDK9 degradation after ectopic expression of Halo-tagged KEAP1 (CDK9 [6]; KEAP1 stable knockout H1299 cells, 0.1 μM, 6 h): rescued CDK9 degradation
- CDK9 degradation after depleting KEAP1 (CDK9 [6]; siRNA and CRISPR-Cas9 knock down/out of KEAP1, H1299 cells): blocked
- number of E3 ligases whose interaction with CDK9 is induced (V5-TurboID-CDK9; 293T cells expressing V5-TurboID-CDK9): 6 E3 ligases
- KEAP1 pulled down (immunoblot of TurboID-bait assay) (V5-TurboID-CDK9; 293T cells, in the presence of biotin, with vs without compound): significantly more KEAP1 can be pulled down
- formation of CDK9:KEAP1 ternary complex (nanoBRET) [7]: can induce the formation of the CDK9:955:KEAP1 ternary complex in a dose-dependent manner
- CDK10 degradation (CDK10 [2]): potently degrade CDK10
- competition with IA-alkyne for binding to KEAP1 (purified KEAP1 protein): can compete with IA-alkyne to covalently bind to KEAP1 in a concentration-dependent manner
- effect of KEAP1 knockdown on cytotoxicity (H1299 lung cancer cells): attenuated the cytotoxicity
- downregulation of CDK9-dependent transcription [8]: more potent than SNS-032
- induction of PARP cleavage (MOLT4 cells): more potent in inducing PARP cleavage than SNS-032
- CDK9 degradation (CDK9 [9]): potently degraded CDK9
- time to almost complete degradation of CDK9 (CDK9 [1]; 0.1 μM, time course): ≤ 8 h
- CDK9 degradation (CDK9 [1]; [14]): can induce CDK9 degradation
- CDK9 degradation (CDK9 [1]; short-term treatment (6 h)): potently degrade CDK9
- duration of CDK9 degradation after removal of compound from the culture (CDK9 [1]; washout): up to 18 h
- potency relative to SNS-032 in downregulation of c-Myc and MCL-1 expression (c-Myc and MCL-1 [10]): about 10 fold

Compound: COc1cc(/C=C/C(=O)N2CCC=CC2=O)cc(OC)c1OCC(=O)N1CCC(c2cc(OC(C)C)c(Nc3ncc(Cl)c(Nc4ccccc4S(=O)(=O)C(C)C)n3)cc2C)CC1 [compound 819, (E)-1-(3-(4-(2-(4-(4-((5-chloro-4-((2-(isopropylsulfonyl)phenyl)amino)pyrimidin-2-yl)amino)-5-isopropoxy-2-methylphenyl)piperidin-1-yl)-2-oxoethoxy)-3,5-dimethoxyphenyl)acryloyl)-5,6-dihydropyridin-2(1H)-one]
- EML4-ALK degradation (EML4-ALK; NCI-H2228 NSCLC cells): can degrade EML4-ALK in a concentration-dependent manner

Compound: CC(C)(C)c1cnc(CSc2cnc(NC(=O)C3CCN(CC(=O)NCCOCCOCCOCCNc4cccc5c4C(=O)N(C4CCC(=O)NC4=O)C5=O)CC3)s2)o1 (stereo not drawn) [THAL-SNS-032]
- selectivity of degradation among SNS-032 targets (CDK9 [11]): could only degrade CDK9 but not other known SNS-032 targets

Compound: CC(C)[C@H](NC(=O)c1ccc2ccccc2n1)C(=O)N[C@@H](CC(=O)O)C(=O)COc1c(F)cccc1F [QVD]
- effect of pre-treatment on CDK9 degradation by 955 (CDK9 [1]): does not block

Compound: CO/C1=C\C(C)=C\[C@@H](C)[C@@H](O)[C@@H](C)C/C(C)=C/C=C/[C@H](OC)[C@@H]([C@@H](C)[C@@H](O)[C@H](C)[C@@]2(O)C[C@@H](O)[C@H](C)[C@@H](C(C)C)O2)OC1=O [Baf-A1]
- effect of pre-treatment on CDK9 degradation by 955 (CDK9 [1]): does not block

Compound: COc1cc(/C=C/C(=O)N2CCC=CC2=O)cc(OC)c1OC [PL, (E)-1-(3-(3,4,5-trimethoxyphenyl)acryloyl)-5,6-dihydropyridin-2(1H)-one]
- anti-proliferative effect (DU145; DU145, within 3 μM): no anti-proliferative effect
- anti-proliferative effect (PC3; PC3, within 3 μM): no anti-proliferative effect
- anti-proliferative effect (22RV1; 22RV1, within 3 μM): no anti-proliferative effect
- CDK9 degradation (CDK9 [1]; [15]): none of these treatments degraded CDK9
- effect of pre-treatment on CDK9 degradation by 955 (CDK9 [1]): blocks
- anti-proliferative effect (LNCaP; within 3 μM): no anti-proliferative effect

Compound: CCOC(=O)c1ccc(N2NC(=O)/C(=C/c3ccc([N+](=O)[O-])o3)C2=O)cc1 [PYR-41]
- effect of pre-treatment on CDK9 degradation by 955 (CDK9 [1]): blocks

Compound: COC(=O)/C=C/C(=O)OC [DMF, dimethyl fumarate]
- effect of pre-treatment on CDK9 degradation by 955 (CDK9 [1]): blocks
- effect of pre-treatment on EML4-ALK degradation induced by 819 (EML4-ALK): blocks

Compound: CCN(CC)CCCC(C)Nc1ccnc2cc(Cl)ccc12 (stereo not drawn) [chloroquine]
- effect of pre-treatment on CDK9 degradation by 955 (CDK9 [1]): does not block

Compound: CC(C)C[C@@H](C=O)NC(=O)[C@H](CC(C)C)NC(=O)[C@H](CC(C)C)NC(=O)OCc1ccccc1 [MG132] (Cbz-Leu-Leu-Leu-aldehyde)
- effect of pre-treatment on CDK10 degradation induced by 955 (CDK10 [2]): blocks
- effect of pre-treatment on CDK9 degradation by 955 (CDK9 [1]): blocks
- effect of pre-treatment on EML4-ALK degradation induced by 819 (EML4-ALK): blocks

Compound: COc1cc(CCC(=O)N2CCCCC2=O)cc(OC)c1OCCN1CCN(C(=O)CN2CCC(C(=O)Nc3ncc(SCc4ncc(C(C)(C)C)o4)s3)CC2)CC1 [compound 336, N-(5-(((5-(tert-butyl)oxazol-2-yl)methyl)thio)thiazol-2-yl)-1-(2-(4-(2-(2,6-dimethoxy-4-(3-oxo-3-(2-oxopiperidin-1-yl)propyl)phenoxy)ethyl)piperazin-1-yl)-2-oxoethyl)piperidine-4-carboxamide]
- effect of KEAP1 knockdown on cytotoxicity [5]: no significant effect
- formation of CDK9:KEAP1 ternary complex (nanoBRET) [7]: negligible
- effect of KEAP1 knockdown on cytotoxicity (H1299 lung cancer cells): no significant effect
- CDK9 degradation (CDK9 [1]; [14]): does not induce CDK9 degradation

Compound: CC(C)(C)c1cnc(CSc2cnc(NC(=O)C3CCNCC3)s2)o1 [SNS-032, N-(5-(((5-(tert-butyl)oxazol-2-yl)methyl)thio)thiazol-2-yl)piperidine-4-carboxamide]
- CDK9 level (global proteome) (CDK9 [3]; 1 μM for 6 h): no significant effect
- effect of KEAP1 knockdown on cytotoxicity [5]: no significant effect
- binding to CDK10 (CDK10 [13]): moderate binding
- CDK10 degradation (CDK10 [2]): no effect
- EC50 (DU145; Homo sapiens, DU-145, 72 h, read-out: EC50 (antiproliferative)): > 100 nM
- EC50 (PC3; Homo sapiens, PC-3, 72 h, read-out: EC50 (antiproliferative)): > 100 nM
- effect of KEAP1 knockdown on cytotoxicity (H1299 lung cancer cells): no significant effect
- EC50 (22RV1; Homo sapiens, 22Rv1, 72 h, read-out: EC50 (antiproliferative)): > 100 nM
- CDK9 degradation (CDK9 [1]; [15]): none of these treatments degraded CDK9
- effect of pre-treatment on CDK9 degradation by 955 (CDK9 [1]): blocks
- CDK9 degradation (CDK9 [1]; short-term treatment (6 h)): could not
- EC50 (LNCaP; Homo sapiens, 72 h, read-out: EC50 (antiproliferative)): > 100 nM

Compound: CC1(C)CC[C@]2(C(=O)n3ccnc3)CC[C@]3(C)[C@H](C(=O)C=C4[C@@]5(C)C=C(C#N)C(=O)C(C)(C)[C@@H]5CC[C@]43C)[C@@H]2C1 [CDDO-IM]
- effect of pre-treatment on CDK9 degradation by 955 (CDK9 [1]): blocks
